In assay [1] the target is T1, human CB2 (hCB2) (Homo sapiens, UniProt P34972).
T1 construct: (cDNA clone) CNR0200000
The assay can be described thus: 35S GTPγS binding assay, hCB2 agonist. As to conditions: GTPγS agonist, HEK-293 membranes; read-out: hCB2 EC50 (GTPyS ag). It counts as biochemical. In outline: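 Membranes (5 μg) from cells transfected with hCB2 cDNA in pcDNA3.1+ incubated with SPA beads, 0.1 nM [35S]GTPγS and 20 uM GDP in 50 mM HEPES pH 7.4, 100 mM NaCl, 5 mM MgCl2, 0.001% saponin, ± test compound. Incubation 90 min at room temperature; bound label read by scintillation counting.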
A general note: Binding of GTPγS marks nucleotide exchange on a G protein.

In assay [2] the target is T2, recombinant human cannabinoid receptor CB2 (Homo sapiens, UniProt P34972).
T2 construct: (cDNA clone) CNR0200000
T2 sequence (P34972 whole entry): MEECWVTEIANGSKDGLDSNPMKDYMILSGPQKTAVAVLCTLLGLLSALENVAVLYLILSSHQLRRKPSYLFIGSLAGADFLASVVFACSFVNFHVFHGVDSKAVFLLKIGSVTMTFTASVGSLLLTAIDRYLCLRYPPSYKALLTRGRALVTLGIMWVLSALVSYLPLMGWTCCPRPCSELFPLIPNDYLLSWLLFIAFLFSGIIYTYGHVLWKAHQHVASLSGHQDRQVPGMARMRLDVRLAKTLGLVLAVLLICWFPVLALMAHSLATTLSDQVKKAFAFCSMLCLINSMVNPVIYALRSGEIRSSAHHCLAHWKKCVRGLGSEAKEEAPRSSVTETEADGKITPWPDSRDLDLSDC
Put plainly: Cannabinoid receptor radioligand binding assay, [3H]-CP 55,940 displacement, hCB2. In outline: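 Membranes from hCB2-transfected cells, prepared by 1000×g then 40,000×g centrifugation, resuspended in 20 mM HEPES pH 7.4, 5 mM MgCl2, 1 mM EDTA, 10% sucrose.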

In assay [3] the target is T3, human CB2 receptors (Homo sapiens, UniProt P34972).
T3 construct: (cDNA clone) CNR0200000
T3 sequence (P34972 whole entry): as above
The assay can be described thus: cAMP assay in HEK-293 cells, hCB2 agonist. It is filed as cell-based. As to conditions: inhibition of forskolin-stimulated cAMP, HEK-293 cells; read-out: hCB2 EC50 (cAMP ag). The method, boiled down: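 HEK-293 cells stably expressing human CB2, suspended at 1,500,000 cells/mL in HBSS with 10 mM HEPES and 0.1% fatty-acid-free BSA, exposed to test compound plus forskolin (90 uM in the 3× compound solution) for 30 min at 37° C.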

Bounds are passed on as bounds.

T1 sequence (P34972 whole entry): as above

Broadly, the EC50 is the concentration giving half of the maximal effect. The term IC50 denotes the concentration that inhibits the measured activity by half. Take `COc1ccc(C(=O)c2cc3cc(C)n(CCN4CCOCC4)c3s2)cn1` [Compound 58, (6-Methoxypyridin-3-yl)(5-methyl-6-(2-morpholinoethyl)-6H-thieno[2,3-b]pyrrol-2-yl)methanone]: the concentration for a half-maximal effect (EC50) in assay [1] and in assay [3] was less than 100 nM in each case. The concentration for half-maximal inhibition (IC50) in assay [2] fell in the range of 100 to 1000 nM.
Regarding `Cc1cc2cc(C(=O)c3ccc(C(F)(F)F)cc3)sc2n1CCN1CCOCC1` [Compound 60, (5-Methyl-6-(2-morpholinoethyl)-6H-thieno[2,3-b]pyrrol-2-yl)(4-(trifluoromethyl)phenyl)methanone], the EC50 in assay [1] was 1000 to 10000 nM; in assay [3] it was less than 100 nM. Besides, in assay [2], the IC50 fell in the range of 1000 to 10000 nM.
With `COc1ccc(C(=O)c2cc3cc(C)n(CC4CCOCC4)c3s2)cc1` [Compound 62, (4-Methoxyphenyl)(5-methyl-6-((tetrahydro-2H-pyran-4-yl)methyl)-6H-thieno[2,3-b]pyrrol-2-yl)methanone], the 50% effective concentration (EC50) in assay [1] and in assay [3] was less than 100 nM each time. For the same molecule, in assay [2], the IC50 was less than 100 nM.
Take `COc1ccc(C(=O)c2cc3cc(C)n(CCN4CCOCC4)c3s2)c(Cl)c1` [Compound 70, (2-Chloro-4-methoxyphenyl)(5-methyl-6-(2-morpholinoethyl)-6H-thieno[2,3-b]pyrrol-2-yl)methanone]: the EC50 in assay [1] and in assay [3] was less than 100 nM in each case. In addition, the IC50 in assay [2] is less than 100 nM.
With `COc1ccc(C(=O)c2cc3cc(C)n(CCN4CCCCC4)c3s2)cc1` [Compound 78, (4-Methoxyphenyl)(5-methyl-6-(2-(piperidin-1-yl)ethyl)-6H-thieno[2,3-b]pyrrol-2-yl)methanone], the EC50 in assay [1] and in assay [3] was less than 100 nM in each case. Moreover, in assay [2], the 50% inhibitory concentration (IC50) is less than 100 nM.
For `COc1ccc(C(=O)c2cc3cc(C)n(CCC4CCOCC4)c3s2)cc1` [Compound 82, (4-Methoxyphenyl)(5-methyl-6-(2-(tetrahydro-2H-pyran-4-yl)ethyl)-6H-thieno[2,3-b]pyrrol-2-yl)methanone], the EC50 in assay [1] and in assay [3] was less than 100 nM each time. For the same molecule, the IC50 in assay [2] is less than 100 nM.
`COc1ccc(C(=O)c2cc3cc(C)n(Cc4ccccc4)c3s2)cc1` [Compound 84, (6-Benzyl-5-methyl-6H-thieno[2,3-b]pyrrol-2-yl)(4-methoxyphenyl)methanone]: the EC50 is 100 to 1000 nM in assay [1] and less than 100 nM in assay [3]. Besides, in assay [2], the half-maximal inhibitory concentration (IC50) was 100 to 1000 nM.
Turning to `COc1ccc(C(=O)c2cc3cc(C)n(CCCCl)c3s2)c(Cl)c1` [Compound 85, (2-Chloro-4-methoxyphenyl)(6-(3-chloropropyl)-5-methyl-6H-thieno[2,3-b]pyrrol-2-yl)methanone], the EC50 in assay [1] and in assay [3] was less than 100 nM throughout. In addition, the IC50 in assay [2] is less than 100 nM.
As for `COc1ccc(C(=O)c2cc3cc(C)n(CCCNS(C)(=O)=O)c3s2)c(F)c1` [Compound 87, N-(3-(2-(2-Fluoro-4-methoxybenzoyl)-5-methyl-6H-thieno[2,3-b]pyrrol-6-yl)propyl)methanesulfonamide], the EC50 in assay [1] and in assay [3] was less than 100 nM in each case. For the same molecule, the half-maximal inhibitory concentration (IC50) in assay [2] lay within 100 to 1000 nM.
As to `COc1ccc(C(=O)c2cc3cc(C)n(CCCNS(C)(=O)=O)c3s2)c(Cl)c1` [Compound 91, N-(3-(2-(2-Chloro-4-methoxybenzoyl)-5-methyl-6H-thieno[2,3-b]pyrrol-6-yl)propyl)methanesulfonamide], the EC50 in assay [1] and in assay [3] was less than 100 nM each time. In assay [2], the half-inhibitory concentration (IC50) was less than 100 nM.
For `COc1ccc(C(=O)c2cc3cc(C)n(CCN4CCOCC4)c3s2)c(C(F)(F)F)c1` [Compound 119, (4-Methoxy-2-(trifluoromethyl)phenyl)(5-methyl-6-(2-morpholinoethyl)-6H-thieno[2,3-b]pyrrol-2-yl)methanone], the EC50 in assay [1] and in assay [3] was less than 100 nM throughout. Further, the concentration for half-maximal inhibition (IC50) in assay [2] is less than 100 nM.
For the molecule `COc1ccc(C(=O)c2cc3cc(C)n(CCN4CCOCC4)c3s2)c(OC)c1` [Compound 120, (2,4-Dimethoxyphenyl)(5-methyl-6-(2-morpholinoethyl)-6H-thieno[2,3-b]pyrrol-2-yl)methanone], the EC50 in assay [1] and in assay [3] was less than 100 nM each time. Further, in assay [2], the half-maximal inhibitory concentration (IC50) is less than 100 nM.
For the molecule `Cc1ccc(C(=N)c2cc3cc(C)n(CCN4CCOCC4)c3s2)cc1` [Compound 121, (5-methyl-6-(2-morpholinoethyl)-6H-thieno[2,3-b]pyrrol-2-yl)(p-tolyl)methanimine], the 50% effective concentration (EC50) in assay [1] and in assay [3] was less than 100 nM throughout. Further, the half-maximal inhibitory concentration (IC50) in assay [2] lay in the range of 100 to 1000 nM.
As for `CCOc1ccc(C(=O)c2cc3cc(C)n(CCN4CCOCC4)c3s2)c(Cl)c1` [Compound 126, (2-chloro-4-ethoxyphenyl)(5-methyl-6-(2-morpholinoethyl)-6H-thieno[2,3-b]pyrrol-2-yl)methanone], the EC50 in assay [1] and in assay [3] was less than 100 nM throughout. Moreover, the half-inhibitory concentration (IC50) in assay [2] is less than 100 nM.
Turning to `COc1ccc(C(=O)c2cc3cc(C)n(CCN4CCOCC4)c3s2)cc1F` [Compound 128, (3-fluoro-4-methoxyphenyl)(5-methyl-6-(2-morpholinoethyl)-6H-thieno[2,3-b]pyrrol-2-yl)methanone], the EC50 in assay [1] was less than 100 nM; in assay [3], 100 to 1000 nM. In addition, the 50% inhibitory concentration (IC50) in assay [2] lay within 100 to 1000 nM.
Take `Cc1cc2cc(C(=O)c3ccc(C#N)cc3)sc2n1CCN1CCOCC1` [Compound 129, 4-(5-methyl-6-(2-morpholinoethyl)-6H-thieno[2,3-b]pyrrole-2-carbonyl)benzonitrile]: the EC50 in assay [1] was less than 100 nM; in assay [3], 100 to 1000 nM. Moreover, the IC50 in assay [2] was in the range of 100 to 1000 nM.
Regarding `COc1cc(F)ccc1C(=O)c1cc2cc(C)n(CCN3CCOCC3)c2s1` [Compound 133, (4-fluoro-2-methoxyphenyl)(5-methyl-6-(2-morpholinoethyl)-6H-thieno[2,3-b]pyrrol-2-yl)methanone], the 50% effective concentration (EC50) in assay [1] and in assay [3] was less than 100 nM throughout. Moreover, in assay [2], the IC50 is less than 100 nM.
In the case of `Cc1cc2cc(C(=O)c3ccc(F)cc3F)sc2n1CCN1CCOCC1` [Compound 135, (2,4-difluorophenyl)(5-methyl-6-(2-morpholinoethyl)-6H-thieno[2,3-b]pyrrol-2-yl)methanone], the half-maximal effective concentration (EC50) in assay [1] was 100 to 1000 nM; in assay [3], less than 100 nM. For the same molecule, the IC50 in assay [2] is 100 to 1000 nM.
As for `COc1ccc(C(=O)c2cc3cc(C)n(CCN4CCOCC4)c3s2)c(C)n1` [Compound 136, (6-methoxy-2-methylpyridin-3-yl)(5-methyl-6-(2-morpholinoethyl)-6H-thieno[2,3-b]pyrrol-2-yl)methanone], the EC50 in assay [1] and in assay [3] was less than 100 nM throughout. Also, the 50% inhibitory concentration (IC50) in assay [2] is less than 100 nM.
Take `COc1ccc(C(O)(c2cc3cc(C)n(CCN4CCOCC4)c3s2)C(F)(F)F)cc1` (stereo not drawn) [Compound 138, 2,2,2-trifluoro-1-(4-methoxyphenyl)-1-(5-methyl-6-(2-morpholinoethyl)-6H-thieno[2,3-b]pyrrol-2-yl)ethanol]: the EC50 in assay [1] and in assay [3] was less than 100 nM each time. Moreover, the half-maximal inhibitory concentration (IC50) in assay [2] lay within 100 to 1000 nM.
In the case of `COc1ccc(C(=O)c2cc3cc(C)n(S(=O)(=O)CCN4CCOCC4)c3s2)cc1` [Compound 139, (4-methoxyphenyl)(5-methyl-6-(2-morpholinoethylsulfonyl)-6H-thieno[2,3-b]pyrrol-2-yl)methanone], the concentration for a half-maximal effect (EC50) in assay [1] and in assay [3] was less than 100 nM each time. In addition, the IC50 in assay [2] is less than 100 nM.
Take `COc1ccc(C(c2cc3cc(C)n(CCN4CCOCC4)c3s2)C(F)(F)F)cc1` (stereo not drawn) [Compound 141, 4-(2-(5-methyl-2-(2,2,2-trifluoro-1-(4-methoxyphenyl)ethyl)-6H-thieno[2,3-b]pyrrol-6-yl)ethyl)morpholine]: the EC50 in assay [1] was 100 to 1000 nM; in assay [3], less than 100 nM. Further, in assay [2], the half-inhibitory concentration (IC50) fell in the range of 100 to 1000 nM.
As to `COc1ccc(C(=O)c2cc3cc(C)n(CCN4CCC(OC)C4)c3s2)cn1` (stereo not drawn) [Compound 147, (6-methoxypyridin-3-yl)(6-(2-(3-methoxypyrrolidin-1-yl)ethyl)-5-methyl-6H-thieno[2,3-b]pyrrol-2-yl)methanone], the concentration for a half-maximal effect (EC50) in assay [1] and in assay [3] was 100 to 1000 nM each time. Also, the IC50 in assay [2] lay within 1000 to 10000 nM.

For the origin of these results see US20130029970A1 (priority 2009, published 2013).
